Patent publication US20170215422A1, “NOVEL CYCLIC DEPSIPEPTIDE DERIVATIVES AND HARMFUL ORGANISM CONTROL AGENTS COMPRISING THE SAME” (priority 2012, published 2017)

Columns and labels:
[1] = tested on: adult of Ascaridiidae galli; assay: Anthelminticidal effect against adult of Ascaridiidae galli (in-vitro test); details: 50 ppm; six adults per culture solution; 41° C.; 24 hr
Protocol: The activity of compounds was evaluated based on a change in motility of adults of A. galli. Compounds of the present invention were dissolved in dimethyl sulfoxide, and the solution was added to a culture solution of A. galli that had been dissolved in a Ringer's solution to a compound concentration of 50 ppm. Six adults of A. galli were placed per culture solution, followed by culturing at 41° C.

Musca domestica = assay: Control effect against Musca domestica adults (sucrose solution on swab); type: in vivo; details: 50 ppm in 40% sucrose solution, 4 days
Protocol: A chemical solution of the compound according to the present invention that had been adjusted with a 40% sucrose solution to a concentration of 50 ppm was adsorbed on a swab, and the swab was placed in a vial. Two adults of Musca domestica grown in a room were released, followed by standing in a room at a room temperature of 25° C. […] When two insects were in a dead or anguished state, the test compound was determined to be effective.

[2] = tested on: egg of drug-resistant Tetranychus uruticae; assay: Ovicidal effect against egg of drug-resistant Tetranychus uruticae; type: in vivo; details: for insecticidal effect against a strain having a lowered susceptibility to acequinocyl: summary of test results in words
Protocol: <Miticidal Effect Against Two-Spotted Spider Mite (Drug-Resistant Strain)>
(§1) A leaf disk having a diameter of 2.0 cm was cut out from a kidney bean grown in a pot. The leaf disk was inoculated with seven female adult of drug-resistant Tetranychus uruticae, followed by laying in a thermostatic chamber (25° C.). After the elapse of 24 hr, female adults were removed from the leaf disk. The foliage was treated with a chemical solution adjusted to a 50% aqueous acetone solution (0.05% Tween 20 added) containing a compound of the present invention at a predetermined concentration. The foliage was then air-dried and was allowed to stand in a thermostatic chamber (light period 16 hr-dark period 8 hr) (25° C.). Seven days after the chemical solution treatment, the number of remaining eggs and the number of dead mites were counted, and the ovicidal/miticidal rate was calculated by the following equation.
(§2) Ovicidal/miticidal rate (%)={(number of remaining eggs+number of dead mites)/(number of remaining eggs+number of dead mites+number of survived insects)}×100

[3] = tested on: egg of Tetranychus uruticae (susceptible strain); assay: Ovicidal effect against egg of Tetranychus uruticae (susceptible strain); type: in vivo; details: foliage treatment of 10 ppm; control agent
Protocol: <Miticidal Effect Against Two-Spotted Spider Mite (Susceptible Strain)>
as §1, with “of” for “of drug-resistant”
as §2

SMILES | insecticidal activity (two adults dead or anguished = effective) (Musca domestica) | also measured
CCCCCC1OC(=O)C(C)N(C)C(=O)C(CCCCC)OC(=O)C(C)N(C)C(=O)C(CCCCC)OC(=O)C(C)N(C)C(=O)C(CCCCC)OC(=O)CN(C)C1=O (centres unmarked) [Compound 1] | two insects were brought to a dead or anguished state | anthelminticidal activity (adults that stopped automatic motility) [1]: four insects that had stopped automatic motility
CCCCCCC1OC(=O)CN(C)C(=O)C(CCCCC)OC(=O)C(C)N(C)C(=O)C(CCCCC)OC(=O)C(C)N(C)C(=O)C(CCCCC)OC(=O)C(C)N(C)C1=O [Compound 2, Cycro(-N-Me-L-Gly-(R)-Oct-N-Me-L-Ala-(R)Hep-N-Me-L-Ala-(R)-Hep-N-Me-L-Ala-(R)-Hep-)] | – | anthelminticidal activity (adults that stopped automatic motility) [1]: four insects that had stopped automatic motility
CCCCCCCCC1OC(=O)CN(C)C(=O)C(CCCCC)OC(=O)C(C)N(C)C(=O)C(CCCCC)OC(=O)C(C)N(C)C(=O)C(CCCCC)OC(=O)C(C)N(C)C1=O (centres unmarked) [Compound 4] | two insects were brought to a dead or anguished state | –
CCCCCC1OC(=O)C(C)N(C)C(=O)C(CCCC)OC(=O)C(C)N(C)C(=O)C(CCCCC)OC(=O)C(C)N(C)C(=O)C(CCCCC)OC(=O)C(C)N(C)C1=O (centres unmarked) [Compound 6] | – | anthelminticidal activity (adults that stopped automatic motility) [1]: four insects that had stopped automatic motility
CCCCCCCCC1OC(=O)C(C)N(C)C(=O)C(CCCCC)OC(=O)C(C)N(C)C(=O)C(CCCCC)OC(=O)C(C)N(C)C(=O)C(CCCCC)OC(=O)C(C)N(C)C1=O (centres unmarked) [Compound 8] | two insects were brought to a dead or anguished state | –
CCCCCCCCCC1OC(=O)C(C)N(C)C(=O)C(CCCCC)OC(=O)C(C)N(C)C(=O)C(CCCCC)OC(=O)C(C)N(C)C(=O)C(CCCCC)OC(=O)C(C)N(C)C1=O (centres unmarked) [Compound 9] | two insects were brought to a dead or anguished state | –
CCCCCC1OC(=O)C(C)N(C)C(=O)C(CCCCC)OC(=O)C(CC)N(C)C(=O)C(CCCCC)OC(=O)C(C)N(C)C(=O)C(CCCCC)OC(=O)C(C)N(C)C1=O (centres unmarked) [Compound 10] | – | anthelminticidal activity (adults that stopped automatic motility) [1]: four insects that had stopped automatic motility
CCCCCCC1OC(=O)C(CC)N(C)C(=O)C(CCCCC)OC(=O)C(C)N(C)C(=O)C(CCCCC)OC(=O)C(C)N(C)C(=O)C(CCCCC)OC(=O)C(C)N(C)C1=O (centres unmarked) [Compound 11] | two insects were brought to a dead or anguished state | –
CCCCCCCC1OC(=O)C(CC)N(C)C(=O)C(CCCCC)OC(=O)C(C)N(C)C(=O)C(CCCCC)OC(=O)C(C)N(C)C(=O)C(CCCCC)OC(=O)C(C)N(C)C1=O (centres unmarked) [Compound 12] | two insects were brought to a dead or anguished state | –
CCCCCCCCC1OC(=O)C(CC)N(C)C(=O)C(CCCCC)OC(=O)C(C)N(C)C(=O)C(CCCCC)OC(=O)C(C)N(C)C(=O)C(CCCCC)OC(=O)C(C)N(C)C1=O (centres unmarked) [Compound 13] | two insects were brought to a dead or anguished state | –
CCCCCC1OC(=O)C(C)N(C)C(=O)C(CCCCC)OC(=O)C(CCCC)N(C)C(=O)C(CCCCC)OC(=O)C(C)N(C)C(=O)C(CCCCC)OC(=O)C(C)N(C)C1=O (centres unmarked) [Compound 15] | two insects were brought to a dead or anguished state | –
CCCCCCCC1OC(=O)C(CCCC)N(C)C(=O)C(CCCCC)OC(=O)C(C)N(C)C(=O)C(CCCCC)OC(=O)C(C)N(C)C(=O)C(CCCCC)OC(=O)C(C)N(C)C1=O [Compound 16, Cycro(-N-Me-L-Nle (R)-Nna-N-Me-L-Ala-(R)-Hep-N-Me-L-Ala-(R)-Hep-N-Me-L-Ala-(R)-Hep-)] | two insects were brought to a dead or anguished state | –
CCCCCC1OC(=O)C(C)N(C)C(=O)C(CCCCC)OC(=O)C(CCC)N(C)C(=O)C(CCCCC)OC(=O)C(C)N(C)C(=O)C(CCCCC)OC(=O)C(C)N(C)C1=O (centres unmarked) [Compound 19] | – | anthelminticidal activity (adults that stopped automatic motility) [1]: four insects that had stopped automatic motility
CCCCCCCC1OC(=O)C(CCC)N(C)C(=O)C(CCCCC)OC(=O)C(C)N(C)C(=O)C(CCCCC)OC(=O)C(C)N(C)C(=O)C(CCCCC)OC(=O)C(C)N(C)C1=O (centres unmarked) [Compound 21] | two insects were brought to a dead or anguished state | –
CCCCCCCCC1OC(=O)C(CCC)N(C)C(=O)C(CCCCC)OC(=O)C(C)N(C)C(=O)C(CCCCC)OC(=O)C(C)N(C)C(=O)C(CCCCC)OC(=O)C(C)N(C)C1=O (centres unmarked) [Compound 22] | two insects were brought to a dead or anguished state | –
CCCCCCCCCC1OC(=O)C(CCC)N(C)C(=O)C(CCCCC)OC(=O)C(C)N(C)C(=O)C(CCCCC)OC(=O)C(C)N(C)C(=O)C(CCCCC)OC(=O)C(C)N(C)C1=O (centres unmarked) [Compound 23] | two insects were brought to a dead or anguished state | –
CCCCCCC[C@H]1OC(=O)[C@H](CC(C)C)N(C)C(=O)[C@@H](CCCCC)OC(=O)[C@H](C)N(C)C(=O)[C@H](CCCCC)OC(=O)[C@H](C)N(C)C(=O)[C@@H](CCCCC)OC(=O)[C@H](C)N(C)C1=O [Compound 28] | two insects were brought to a dead or anguished state | –
CCCCCCCC[C@H]1OC(=O)[C@H](CC(C)C)N(C)C(=O)[C@@H](CCCCC)OC(=O)[C@H](C)N(C)C(=O)[C@H](CCCCC)OC(=O)[C@H](C)N(C)C(=O)[C@@H](CCCCC)OC(=O)[C@H](C)N(C)C1=O [Compound 29] | two insects were brought to a dead or anguished state | –
CCCCCCCC1OC(=O)C(CC(C)C)N(C)C(=O)C(CCCCC)OC(=O)CN(C)C(=O)C(CCCCC)OC(=O)CN(C)C(=O)C(CCCCC)OC(=O)CN(C)C1=O (centres unmarked) [Compound 32] | two insects were brought to a dead or anguished state | –
CCCCCC1OC(=O)C(CC(C)C)N(C)C(=O)C(CCCCC)OC(=O)C(CC(C)C)N(C)C(=O)C(CCCCC)OC(=O)C(CC(C)C)N(C)C(=O)C(CCCCC)OC(=O)CN(C)C1=O (centres unmarked) [Compound 33] | two insects were brought to a dead or anguished state | –
CCCCC[C@H]1OC(=O)CN(C)C(=O)[C@@H](CCCCC)OC(=O)[C@H](CC(C)C)N(C)C(=O)[C@@H](CCCCC)OC(=O)[C@H](CC(C)C)N(C)C(=O)[C@@H](CCCCC)OC(=O)CN(C)C1=O [Compound 47, Cycro(-N-Me-L-Gly-(R)-Hep-N-Me-L-Gly-(R)-Hep-N-Me-L-Leu-(R)-Hep-N-Me-L-Leu-(R)-Hep-)] | two insects were brought to a dead or anguished state | –
CCCCCC1OC(=O)C(CCC)N(C)C(=O)C(CCCCC)OC(=O)C(CC(C)C)N(C)C(=O)C(CCCCC)OC(=O)C(CC(C)C)N(C)C(=O)C(CCCCC)OC(=O)C(CCC)N(C)C1=O (centres unmarked) [Compound 53] | – | insecticidal effect against a strain having a lowered susceptibility to acequinocyl [2]: high insecticidal effect
CCCCCC1OC(=O)C(CCC)N(C)C(=O)C(CCCCC)OC(=O)C(CCC)N(C)C(=O)C(CCCCC)OC(=O)C(CC(C)C)N(C)C(=O)C(CCCCC)OC(=O)C(CCC)N(C)C1=O (centres unmarked) [Compound 55] | – | insecticidal effect against a strain having a lowered susceptibility to acequinocyl [2]: high insecticidal effect
CCCCCC1OC(=O)C(CC(C)C)N(C)C(=O)C(CCCCC)OC(=O)C(CC(C)C)N(C)C(=O)C(CCCCC)OC(=O)C(CC(C)C)N(C)C(=O)C(CCCCC)OC(=O)C(CCC)N(C)C1=O (centres unmarked) [Compound 56] | – | insecticidal effect against a strain having a lowered susceptibility to acequinocyl [2]: high insecticidal effect
CCCCCC1OC(=O)C(CC(C)C)N(C)C(=O)C(CCCCC)OC(=O)C(CCC)N(C)C(=O)C(CCCCC)OC(=O)C(CCC)N(C)C(=O)C(CCCCC)OC(=O)CN(C)C1=O (centres unmarked) [Compound 60] | two insects were brought to a dead or anguished state | –
CCCCCC1OC(=O)C(C)N(C)C(=O)C(CCCCC)OC(=O)C(C)N(C)C(=O)C(CC(C)C)OC(=O)C(C)N(C)C(=O)C(CCCCC)OC(=O)C(C)N(C)C1=O (centres unmarked) [Compound 61] | – | anthelminticidal activity (adults that stopped automatic motility) [1]: four insects that had stopped automatic motility
CCCCCCCCCCCCC1=C(OC(C)=O)C(=O)c2ccccc2C1=O [acequinocyl, reference compound] | – | ovicial/miticidal rate against egg of Tetranychus uruticae (susceptible strain) [3]: 71%; ovicidal/miticidal rate ([2]; foliage treatment of 10 ppm, eggs, drug-resistant strain, 7 days): 11%
